The subject of series [1] is PPC-1 xenograft tumors. To be noted: for tumor response compared with control group in first week: i.p. three times in first week at 50 mg/kg.
The subject of series [2] is primary CLL cells. Put plainly: Annexin-V apoptosis assay, primary CLL cells. To be noted: one day Annexin-V apoptosis assay. The series is classed as cell-based, human.
Series [3] can be described thus: In vitro plasma stability. The series is classed as in vitro ADME.
The conditions of series [4]: administered orally; cited from earlier work.
The test system of series [5] is B6-Bcl-2 transgenic mice (B-cells overexpress human Bcl-2). Put plainly: B6-Bcl-2 transgenic mouse spleen weight study. As to conditions: for tolerability / toxicity of treated mice: 60 μmol/kg i.p., single injection; for in vivo activity compared to 6a: dose of 60 μmol/kg (Figure 3A); for tolerability of treated mice: i.p. at 30 μmol/kg.
For series [6] the test system is unchanged. As to conditions: ip, 60 umol/kg.
Series [7] concerns the target Bcl-XL (Homo sapiens, UniProt Q07817). Kind of series: 2D [15N,1H]-HSQC binding to 15N-labeled Bcl-XL. To be noted: ligand/protein ratio of 1:1.
In series [8] the target is GST–Bcl-XL ΔTM protein (Homo sapiens, UniProt Q07817). Put plainly: Fluorescence polarization assay. The series is classed as binding.
GST–Bcl-XL ΔTM protein, sequence (Q07817 1-211 limits assumed, stated change not applied): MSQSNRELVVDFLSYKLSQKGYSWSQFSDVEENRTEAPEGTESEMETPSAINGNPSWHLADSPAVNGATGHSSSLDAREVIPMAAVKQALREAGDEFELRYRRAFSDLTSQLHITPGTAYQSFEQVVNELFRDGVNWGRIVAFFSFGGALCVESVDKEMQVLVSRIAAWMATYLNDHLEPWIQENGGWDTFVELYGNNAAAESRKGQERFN
In series [9] the test system is BP3 cell line. Kind of series: Annexin V-FITC and propidium iodide apoptosis assay, BP3.

These results are taken from paper PMC3059195 (Journal of medicinal chemistry, 2010).

Like-named read-outs stand apart in the source and are kept apart here.

Bcl-XL, sequence (Q07817 whole entry): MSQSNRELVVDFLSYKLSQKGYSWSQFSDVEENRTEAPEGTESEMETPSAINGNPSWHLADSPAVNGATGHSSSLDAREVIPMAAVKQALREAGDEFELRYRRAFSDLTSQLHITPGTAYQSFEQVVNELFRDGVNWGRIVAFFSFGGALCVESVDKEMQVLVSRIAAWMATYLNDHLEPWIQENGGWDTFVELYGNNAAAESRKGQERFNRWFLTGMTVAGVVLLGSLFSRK

For the compound `Cc1cc2c(C(C)C)c(O)c(O)c(C=O)c2c(O)c1-c1c(C)cc2c(C(C)C)c(O)c(O)c(C=O)c2c1O` [Compound 1, 1,1′,6,6′,7,7′-Hexahydroxy-5,5′-diisopropyl-3,3′-dimethyl-2,2′-binaphthyl-8,8′-dicarboxaldehyde], the “survival of treated mice in first week” value in series [1] (25 mg/kg, i.p.) is “died”.

In the case of `CC1=C(C2=C(C)C(=O)c3c(cc(O)c(O)c3C(C)C)C2=O)C(=O)c2cc(O)c(O)c(C(C)C)c2C1=O` [Compound 6a, 6,6′,7,7′-tetrahydroxy-5,5′-diisopropyl-3,3′-dimethyl-2,2′-binaphthyl-1,1′,4,4′-tetraone], in series [2], the “LD50 primary CLL sample (first of two, Figure 2D)” value was more than 30 µM; the “LD50 primary CLL sample (second of two, Supplementary 3B)” value was more than 30 µM; the “LD50 primary CLL samples (Supplementary Figure 3A)” value is more than 30 µM. The “degraded after 1 h incubation in rat plasma preparations (second statement)” value (“degraded after 1 h incubation” below) in series [3] was found to be 23%. For the same compound, the “weight loss in first week” value in series [1] (50 mg/kg i.p. three times in first week) is on record as ~ 5%. Besides, the “tumor response compared with control group in first week” value in series [1] was “strong tumor regression”. Moreover, in series [4], the “maximum tolerated dose (MTD)” value is recorded as “above 240 mg/kg”. Besides, the “percent of maximum reduction in spleen weight (biological activity)” value in [5] (60 μmol/kg ip, maximum spleen shrinkage no more than 50%) is recorded as 40%.

Consider `CC1=C(C2=C(C)C(=O)c3c(cc(O)c(O)c3CC(C)C)C2=O)C(=O)c2cc(O)c(O)c(CC(C)C)c2C1=O` [Compound 6b, 6,6′,7,7′-tetrahydroxy-5,5′-diisobutyl-3,3′-dimethyl-2,2′-binaphthyl-1,1′,4,4′-tetraone], for which, in [6], the “percent of maximum reduction in spleen weight (biological activity)” value is given as 60-80% and the spleen weight reduction was 30-40%. Further, in series [5], the “tolerability / toxicity of treated mice” value is listed as “no observed toxicity” and the “in vivo activity compared to 6a” value is “superior”.

Take `CC1=C(C2=C(C)C(=O)c3c(cc(O)c(O)c3CC3CCCC3)C2=O)C(=O)c2cc(O)c(O)c(CC3CCCC3)c2C1=O` [Compound 6c, 5,5′-bis(cyclopentylmethyl)-6,6′,7,7′-tetrahydroxy-3,3′-dimethyl-2,2′-binaphthyl-1,1′,4,4′-tetraone]: in [2], the “LD50 primary CLL samples (Supplementary Figure 3A)” value came to 6.5 µM.

Take `CC1=C(C2=C(C)C(=O)c3c(cc(O)c(O)c3CCC3CCCCC3)C2=O)C(=O)c2cc(O)c(O)c(CCC3CCCCC3)c2C1=O` [Compound 6d, 5,5′-bis(2-cyclohexylethyl)-6,6′,7,7′-tetrahydroxy-3,3′-dimethyl-2,2′-binaphthyl-1,1′,4,4′-tetraone]: in [5], the “tolerability / toxicity of treated mice” value is “no observed toxicity” and the “in vivo activity compared to 6a” value is on record as “superior”.

`CC1=C(C2=C(C)C(=O)c3c(cc(O)c(O)c3CCc3ccc(C)cc3)C2=O)C(=O)c2cc(O)c(O)c(CCc3ccc(C)cc3)c2C1=O` [Compound 6f, 6,6′,7,7′-tetrahydroxy-3,3′-dimethyl-5,5′-bis(4-methylphenethyl)-2,2′-binaphthyl-1,1′,4,4′-tetraone]: the “LD50 primary CLL sample (second of two, Supplementary 3B)” value in series [2] was determined as 15 µM. Further, the “degraded after 1 h incubation” value in series [3] is 14%. Besides, the “binding to Bcl-XL by 2D [15N,1H]-HSQC, qualitative” value (“binding to Bcl-XL by 2D” for short) in series [7] was “strong binding”. The “tumor response compared with control group in first week” value in series [1] was “strong tumor regression”. In series [5], the “tolerability / toxicity of treated mice” value is reported as “no observed toxicity” and the “in vivo activity compared to 6a” value is “superior”. The signs of toxicity entry in [5] (groups of seven mice, 60 μmol/kg) is recorded as “no evident signs of toxicity”.

With `CC1=C(C2=C(C)C(=O)c3c(cc(O)c(O)c3Cc3ccccc3)C2=O)C(=O)c2cc(O)c(O)c(Cc3ccccc3)c2C1=O` [Compound 6i, 5,5′-dibenzyl-6,6′,7,7′-tetrahydroxy-3,3′-dimethyl-2,2′-binaphthyl-1,1′,4,4′-tetraone], the “degraded after 1 h incubation” value in [3] came out at 5%. In addition, the “binding to Bcl-XL by 2D” value in [7] is listed as “strong binding”. In addition, the “survival of treated mice in first week” value in [1] (mouse, in vivo) is listed as “died”. In series [5], the “tolerability / toxicity of treated mice” value was “died” and the “tolerability of treated mice” value was “well tolerated”.

Turning to `CC1=C(C2=C(C)C(=O)c3c(cc(O)c(O)c3Cc3ccc(Cl)cc3)C2=O)C(=O)c2cc(O)c(O)c(Cc3ccc(Cl)cc3)c2C1=O` [Compound 6l, 5,5′-bis(4-chlorobenzyl)-6,6′,7,7′-tetrahydroxy-3,3′-dimethyl-2,2′-binaphthyl-1,1′,4,4′-tetraone], in series [5], the “tolerability / toxicity of treated mice” value is “died” and the “tolerability of treated mice” value is listed as “well tolerated”.

The compound `CC1=C(C2=C(C)C(=O)c3c(cc(O)c(O)c3Cc3ccc(-c4ccccc4)cc3)C2=O)C(=O)c2cc(O)c(O)c(Cc3ccc(-c4ccccc4)cc3)c2C1=O` [Compound 6m, 5,5′-bis(biphenyl-4-ylmethyl)-6,6′,7,7′-tetrahydroxy-3,3′-dimethyl-2,2′-binaphthyl-1,1′,4,4′-tetraone] registered a concentration for half-maximal inhibition (IC50) in [8] of 160 to 630 nM.

On to `CC1=C(C2=C(C)C(=O)c3c(cc(O)c(O)c3C(=O)NCC(C)c3ccccc3)C2=O)C(=O)c2cc(O)c(O)c(C(=O)NCC(C)c3ccccc3)c2C1=O` (stereo not shown) [Compound 8a, 6,6′,7,7′-Tetrahydroxy-3,3′-dimethyl-1,1′,4,4′-tetraoxo-N^5,N^5′-bis(2-phenylpropyl)-1,1′,4,4′-tetrahydro-2,2′-binaphthyl-5,5′-dicarboxamide], for which the “binding to Bcl-XL by 2D” value in [7] is given as “strong binding”. Besides, in [5], the “tolerability / toxicity of treated mice” value is on record as “died”.

Regarding ABT-737, the “cytotoxic activity against BP3 cell lines” value in series [9] is recorded as “no cytotoxic activity”.

A word on the IC50: it is the concentration at which inhibition is half-maximal. Read a high IC50 as lower potency.
